Experimental data published in patent US11865126B2, “Method for treating anxiety disorders, headache disorders, and eating disorders with psilocybin” (priority 2019, dated 2024).

Test system: healthy subjects
Experiment: Phase 1 healthy volunteer study, single oral dose: treatment-emergent adverse events
Type: in vivo, human
Description: A Phase 1 randomized, double-blind, placebo-controlled study to evaluate the effect of psilocybin on cognitive and emotional processing as compared to placebo in healthy volunteers was conducted. The study investigated the short-term (Day 7) and long-term (Day 28) effects of moderate (10 mg) and high doses (25 mg) of psilocybin on key domains of cognition, such as episodic memory, attention, working and spatial memory, social cognition and elements of executive function, including cognitive flexibility.
90 healthy subjects were studied. Approximately 50% of the subjects were psilocybin-naïve. For subjects with prior psilocybin experience, the last exposure was at least 1 year prior to the signing of the Informed Consent Form (ICF). Approximately 50% of the subjects were female. Subjects were stratified by sex and age (18-35 years old; >35 years old).
Each subject was assigned 1 treatment bottle containing 5 capsules packaged in a double-blind fashion, depending on the randomized treatment arm, the bottle contained one of the following: • a. Psilocybin 10 mg: 2×5-mg oral psilocybin capsules plus 3× placebo capsules • b. Psilocybin 25 mg: 5×5-mg oral psilocybin capsules • c. Placebo: 5× placebo capsules
Each 5-mg oral psilocybin capsule comprised 5 mg crystalline psilocybin in the form of Polymorph A, 12.5 mg of SMCC 50, 79.5 mg of SMCC 90, 1 mg sodium starch glycolate, 1 mg colloidal silicon dioxide, and 1 mg sodium stearyl fumarate
Adverse events: Throughout the course of the study, all AEs were monitored and recorded. Each AE was classified according to the following criteria: • i. […] Moderate: The AE produces some impairment of functioning, but is not hazardous to the subject's health. • iii. Severe: The AE produces significant impairment of functioning or incapacitation and is a definite hazard to the subject's health.
Selected Adverse Events of included: • (a) Euphoric mood • (b) Dissociative disorder • (c) Hallucination • (d) Psychotic disorder • (e) Cognitive disorder • (f) Disturbance in attention • (g) Altered mood • (h) Impairment of psychomotor skills • (i) Inappropriate affect • (j) Overdose • (k) Intentional product misuse • (l) Illusion
For example, drug-induced hepatitis that resolved without evidence of hepatic failure would not be considered life threatening even though drug-induced hepatitis can be fatal. • (c) Inpatient hospitalization or prolongation of existing hospitalization. • (d) Persistent or significant disability/incapacity. • (e) Congenital anomaly/birth defect in the offspring of a subject who received psilocybin. • (f) Other: Important medical events that may not result in death, be life-threatening, or require hospitalization, may be considered an SAE when, based upon appropriate medical judgment, they may jeopardize the subject and may require medical or surgical intervention to prevent one of the outcomes listed in this definition. […] Visits:
Visit 3 (V3): Drug Administration (Day 0): The subject was asked to eat a light breakfast at least two hours prior to coming to the clinic for study drug administration. On Day 0 (V3), the subject underwent the SSTS, had vital signs obtained, medications reviewed, AEs recorded and eligibility reviewed prior to being randomized to study drug. The study drug was administered to up to six subjects simultaneously in individual beds separated by a curtain. The subject was invited to put on eyeshades and headphones, lie down and listen to calming music for the rest of the session (six hours). The subject was supported 1:1 with a chaperone and supervised by the study psychiatrist and lead therapist.
Recording of adverse events and prior/concomitant medication was performed at each visit.
During administration of psilocybin, each subject received one on one support from a trained assisting therapist and each dosing session was supervised by a study psychiatrist and a lead therapist. […]

SMILES: CN(C)CCc1c[nH]c2cccc(OP(=O)(O)O)c12 [psilocybin]
- Nervous system disorders, worst severity Moderate: Events (25 mg): 10
- Nervous system disorders, worst severity Severe: Events (25 mg): 1
- Nervous system disorders: Events (25 mg): 43
- Paraesthesia, worst severity Mild: Events (25 mg): 3
- Paraesthesia, worst severity Mild: N (%) (25 mg): 3 (10.0)
- Paraesthesia, worst severity Moderate: Events (25 mg): 1
- Paraesthesia, worst severity Severe: Events (25 mg): 0
- Paraesthesia, worst severity Severe: N (%) (25 mg): 0
- Paraesthesia: Events (25 mg): 4
- Psychiatric disorders, worst severity Mild: Events (25 mg): 5
- Psychiatric disorders, worst severity Moderate: Events (25 mg): 45
- Psychiatric disorders, worst severity Severe: Events (25 mg): 27
- Psychiatric disorders, worst severity Severe: N (%) (25 mg): 9 (30.0)
- Respiratory, thoracic and mediastinal disorders: Events (25 mg): 3
- Respiratory, thoracic and mediastinal disorders: N (%) (25 mg): 3 (10.0)
- Somatic hallucination, worst severity Mild: Events (25 mg): 2
- Somatic hallucination, worst severity Moderate: Events (25 mg): 2
- Somatic hallucination, worst severity Severe: Events (25 mg): 2
- Somatic hallucination: Events (25 mg): 6
- Tension headache, worst severity Mild: Events (25 mg): 4
- Tension headache, worst severity Moderate: Events (25 mg): 2
- Tension headache, worst severity Severe: Events (25 mg): 0
- Tension headache, worst severity Severe: N (%) (25 mg): 0
- Tension headache: Events (25 mg): 6
- Tension headache: N (%) (25 mg): 6 (20.0)
- Time perception altered, worst severity Mild: Events (25 mg): 2
- Time perception altered, worst severity Moderate: Events (25 mg): 4
- Time perception altered, worst severity Severe: Events (25 mg): 0
- Time perception altered, worst severity Severe: N (%) (25 mg): 0
- Time perception altered: Events (25 mg): 6
- Time perception altered: N (%) (25 mg): 6 (20.0)
- Reported 'Mood altered' events: Being less judgmental (25 mg psilocybin (n = 30)): 0
- Reported 'Mood altered' events: Calm (25 mg psilocybin (n = 30)): 0
- Reported 'Mood altered' events: Clarity of thought (25 mg psilocybin (n = 30)): 1
- Reported 'Mood altered' events: Contemplative state (25 mg psilocybin (n = 30)): 1
- Reported 'Mood altered' events: Feeling more moody/sensitive (25 mg psilocybin (n = 30)): 0
- Reported 'Mood altered' events: Feeling of adrenaline release (25 mg psilocybin (n = 30)): 0
- Reported 'Mood altered' events: Feeling rested (25 mg psilocybin (n = 30)): 0
- Reported 'Mood altered' events: Increased compassion (25 mg psilocybin (n = 30)): 1
- Reported 'Mood altered' events: Increased creativity (25 mg psilocybin (n = 30)): 1
- Reported 'Mood altered' events: Increased empathy (25 mg psilocybin (n = 30)): 2
- Reported 'Mood altered' events: Increased sense of connectedness (25 mg psilocybin (n = 30)): 1
- Reported 'Mood altered' events: Increased wit (25 mg psilocybin (n = 30)): 0
- Reported 'Mood altered' events: Introspection (25 mg psilocybin (n = 30)): 8
- Reported 'Mood altered' events: Laughter (25 mg psilocybin (n = 30)): 1
- Reported 'Mood altered' events: More socially upbeat (25 mg psilocybin (n = 30)): 1
- Reported 'Mood altered' events: Negative mood (25 mg psilocybin (n = 30)): 0
- Reported 'Mood altered' events: Reflections (25 mg psilocybin (n = 30)): 4
- Reported 'Mood altered' events: Saw themselves from a new perspective (25 mg psilocybin (n = 30)): 1
- Reported 'Mood altered' events: Sense of oneness (25 mg psilocybin (n = 30)): 2
- Reported 'Mood altered' events: Sense of openness (25 mg psilocybin (n = 30)): 0
- Reported 'Mood altered' events: Unusual appreciation of music (25 mg psilocybin (n = 30)): 0
- Any TEAE: % of subjects (25 mg, listed as Psilocybin): (96.7) %
- Affect lability, Events (Psilocybin 10 mg (N = 30)): 5
- Change in sustained attention, Events (Psilocybin 10 mg (N = 30)): 2
- Depressed mood, Events (Psilocybin 10 mg (N = 30)): 1
- Dissociative identity disorder, Events (Psilocybin 10 mg (N = 30)): 2
- Euphoric mood, Events (Psilocybin 10 mg (N = 30)): 7
- Hallucination, Events (Psilocybin 10 mg (N = 30)): 3
- Hallucination, N (%) (Psilocybin 10 mg (N = 30)): 3 (10.0)
- Hallucination, auditory, Events (Psilocybin 10 mg (N = 30)): 4
- Hallucination, gustatory, Events (Psilocybin 10 mg (N = 30)): 1
- Hallucination, olfactory, Events (Psilocybin 10 mg (N = 30)): 1
- Hallucination, tactile, Events (Psilocybin 10 mg (N = 30)): 2
- Hallucination, visual, Events (Psilocybin 10 mg (N = 30)): 20
- Illusion, Events (Psilocybin 10 mg (N = 30)): 25
- Memory impairment, Events (Psilocybin 10 mg (N = 30)): 1
- Mood altered, Events (Psilocybin 10 mg (N = 30)): 23
- Nervous system disorders, Events (Psilocybin 10 mg (N = 30)): 2
- Nervous system disorders, N (%) (Psilocybin 10 mg (N = 30)): 2 (6.7)
- Psychiatric disorders, Events (Psilocybin 10 mg (N = 30)): 104
- Psychomotor skills impaired, Events (Psilocybin 10 mg (N = 30)): 1
- Selected TEAE (any), Events (Psilocybin 10 mg (N = 30)): 106
- Selected TEAE (any), N (%) (Psilocybin 10 mg (N = 30)): 27 (90.0)
- Somatic hallucination, Events (Psilocybin 10 mg (N = 30)): 8
- Substance-induced psychotic disorder, Events (Psilocybin 10 mg (N = 30)): 0
- Substance-induced psychotic disorder, N (%) (Psilocybin 10 mg (N = 30)): 0
- Affect lability, Events (Psilocybin 25 mg (N = 30)): 3
- Affect lability, N (%) (Psilocybin 25 mg (N = 30)): 3 (10.0)
- Change in sustained attention, Events (Psilocybin 25 mg (N = 30)): 0
- Change in sustained attention, N (%) (Psilocybin 25 mg (N = 30)): 0
- Depressed mood, Events (Psilocybin 25 mg (N = 30)): 2
- Dissociative identity disorder, Events (Psilocybin 25 mg (N = 30)): 2
- Euphoric mood, Events (Psilocybin 25 mg (N = 30)): 8
- Hallucination, Events (Psilocybin 25 mg (N = 30)): 2
- Hallucination, auditory, Events (Psilocybin 25 mg (N = 30)): 4
- Hallucination, gustatory, Events (Psilocybin 25 mg (N = 30)): 0
- Hallucination, gustatory, N (%) (Psilocybin 25 mg (N = 30)): 0
- Hallucination, olfactory, Events (Psilocybin 25 mg (N = 30)): 1
- Hallucination, tactile, Events (Psilocybin 25 mg (N = 30)): 4
- Hallucination, visual, Events (Psilocybin 25 mg (N = 30)): 22
- Illusion, Events (Psilocybin 25 mg (N = 30)): 26
- Memory impairment, Events (Psilocybin 25 mg (N = 30)): 0
- Memory impairment, N (%) (Psilocybin 25 mg (N = 30)): 0
- Mood altered, Events (Psilocybin 25 mg (N = 30)): 25
- Nervous system disorders, Events (Psilocybin 25 mg (N = 30)): 0
- Nervous system disorders, N (%) (Psilocybin 25 mg (N = 30)): 0
- Psychiatric disorders, Events (Psilocybin 25 mg (N = 30)): 106
- Psychomotor skills impaired, Events (Psilocybin 25 mg (N = 30)): 0
- Psychomotor skills impaired, N (%) (Psilocybin 25 mg (N = 30)): 0
- Selected TEAE (any), Events (Psilocybin 25 mg (N = 30)): 106
- Selected TEAE (any), N (%) (Psilocybin 25 mg (N = 30)): 27 (90.0)
- Somatic hallucination, Events (Psilocybin 25 mg (N = 30)): 6
- Substance-induced psychotic disorder, Events (Psilocybin 25 mg (N = 30)): 1
